In brackets after ≈: the same amount, converted by molar mass.
What follows are compounds tested against T1, Peptide deformylase (Mycobacterium tuberculosis, UniProt P9WIJ3) (assay: Inhibition of Mycobacterium tuberculosis peptide deformylase expressed in Escherichia coli M15(pREp4) by microplate assay). Conditions: not given.
T1 sequence (P9WIJ3 whole entry): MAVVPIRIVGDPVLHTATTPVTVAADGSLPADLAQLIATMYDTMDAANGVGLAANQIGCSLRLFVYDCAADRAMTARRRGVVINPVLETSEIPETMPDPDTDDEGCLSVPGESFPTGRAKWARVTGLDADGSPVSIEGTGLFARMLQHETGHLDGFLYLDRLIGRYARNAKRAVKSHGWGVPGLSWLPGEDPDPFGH
`CCCC[C@H](CN(O)C=O)C(=O)N1CCC[C@H]1c1nc2ccccc2[nH]1` gave an IC50 of 10 nM. In the case of `O=CN(O)C[C@@H](CC1CC1)C(=O)N1CCC[C@H]1c1nc2ccccc2o1`, the IC50 is reported as 21 nM. For `CCCC[C@H](CC(=O)O)C(=O)N1CCC[C@H]1c1nc2ccccc2o1`, the IC50 was 803 nM. `CCCC[C@H](C(=O)NO)C(=O)N1CCC[C@H]1c1nc2ccccc2[nH]1` showed an IC50 of 18 nM. In the case of `CCCCC[C@H](CN(O)C=O)C(=O)N1CCC[C@H]1c1nc2ccccc2o1`, the IC50 is reported as 13 nM. `CCC[C@H](CN(O)C=O)C(=O)N1CCC[C@H]1c1nc2ccccc2o1` was tested, and the IC50 was 28 nM. Work on `O=CN(O)C[C@@H](Cc1ccccc1)C(=O)N1CCC[C@H]1c1nc2ccccc2[nH]1` yielded an IC50 of 68 nM. Work on `CCC[C@H](CN(O)C=O)C(=O)N1CCC[C@H]1c1nc2ccccc2[nH]1` yielded an IC50 of 24 nM. Compound `CCCCC[C@H](CN(O)C=O)C(=O)N1CCC[C@H]1c1nc2ccccc2[nH]1` has an IC50 of 15 nM. With `CCCC[C@H](CC(=O)O)C(=O)N1CCC[C@H]1c1nc2ccccc2[nH]1` the IC50 was 202 nM. For `CCCC[C@H](C(=O)NO)C(=O)N1CCC[C@H]1c1nc2ccccc2o1`, the IC50 was 49 nM. With `O=CN(O)C[C@@H](Cc1ccccc1)C(=O)N1CCC[C@H]1c1nc2ccccc2o1` the IC50 was 161 nM. `O=CN(O)C[C@@H](CC1CC1)C(=O)N1CCC[C@H]1c1nc2ccccc2[nH]1` showed an IC50 of 8 nM.

Each compound was assayed on Mycobacterium tuberculosis (assay: Antitubercular activity against Mycobacterium tuberculosis H37Rv after 14 days by turbidimetric assay). Conditions: 336 h.
Format: functional
For `CCCC[C@H](CN(O)C=O)C(=O)N1CCC[C@H]1c1nc2ccccc2[nH]1`, the MIC was 0.1 µg/mL (≈ 0.279 µM). `O=CN(O)C[C@@H](CC1CC1)C(=O)N1CCC[C@H]1c1nc2ccccc2o1` gave an MIC of 0.2 µg/mL (≈ 0.56 µM). `CCCC[C@H](CN(O)C=O)C(=O)N1CCC[C@H]1C(=O)Nc1ccccn1` gave an MIC of 0.2 µg/mL (≈ 0.552 µM). `CCCC[C@H](CN(O)C=O)C(=O)N1CCC[C@H]1c1nc2ccccc2o1` was tested, and the MIC was 0.15 µg/mL (≈ 0.417 µM). `O=CN(O)C[C@@H](CC1CC1)C(=O)N1CCC[C@H]1c1nc2ccccc2[nH]1` gave an MIC of 0.05 µg/mL (≈ 0.14 µM). For `COc1c(N2CCNC(C)C2)c(F)cc2c(=O)c(C(=O)O)cn(C3CC3)c12` (centres undefined) [GATIFLOXACIN], the MIC was 0.07 µg/mL (≈ 0.186 µM).

From ChEMBL document CHEMBL1139242, “Peptide deformylase inhibitors of Mycobacterium tuberculosis: synthesis, structural investigations, and biological results” (Bioorg Med Chem Lett, 2008)
